Each structure is given as a SMILES string. Where only a bound is given, the exact number is not on record here.

PI3Kα, sequence (P42336 whole entry H1047R): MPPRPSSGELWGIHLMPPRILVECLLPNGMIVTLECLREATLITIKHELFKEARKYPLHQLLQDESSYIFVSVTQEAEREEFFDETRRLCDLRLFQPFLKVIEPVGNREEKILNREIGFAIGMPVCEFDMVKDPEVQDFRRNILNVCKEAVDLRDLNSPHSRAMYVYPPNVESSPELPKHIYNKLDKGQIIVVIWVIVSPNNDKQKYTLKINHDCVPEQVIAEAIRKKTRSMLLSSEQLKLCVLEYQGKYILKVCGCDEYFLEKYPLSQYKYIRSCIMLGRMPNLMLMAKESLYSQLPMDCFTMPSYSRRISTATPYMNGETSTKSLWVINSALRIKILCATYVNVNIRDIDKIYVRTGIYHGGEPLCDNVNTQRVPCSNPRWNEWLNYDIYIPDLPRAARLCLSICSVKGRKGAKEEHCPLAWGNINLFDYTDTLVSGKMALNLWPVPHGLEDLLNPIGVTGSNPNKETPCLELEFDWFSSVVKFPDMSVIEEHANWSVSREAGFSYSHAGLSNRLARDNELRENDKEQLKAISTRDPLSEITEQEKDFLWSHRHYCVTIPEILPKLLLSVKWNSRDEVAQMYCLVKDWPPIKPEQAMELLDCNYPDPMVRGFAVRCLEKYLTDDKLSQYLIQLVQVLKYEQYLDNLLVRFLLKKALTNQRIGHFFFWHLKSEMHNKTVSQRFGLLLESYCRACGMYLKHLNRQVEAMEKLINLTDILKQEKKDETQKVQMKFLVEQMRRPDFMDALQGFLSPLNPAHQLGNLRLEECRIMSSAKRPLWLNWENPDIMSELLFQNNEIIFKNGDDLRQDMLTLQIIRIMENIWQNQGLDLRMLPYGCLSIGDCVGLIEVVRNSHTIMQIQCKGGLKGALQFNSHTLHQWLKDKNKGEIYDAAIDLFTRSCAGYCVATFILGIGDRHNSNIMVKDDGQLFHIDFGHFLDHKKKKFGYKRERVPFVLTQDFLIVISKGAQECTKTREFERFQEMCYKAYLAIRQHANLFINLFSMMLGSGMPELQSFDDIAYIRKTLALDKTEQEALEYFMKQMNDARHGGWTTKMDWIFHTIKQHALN
PI3Kα, sequence (P27986 whole entry partner): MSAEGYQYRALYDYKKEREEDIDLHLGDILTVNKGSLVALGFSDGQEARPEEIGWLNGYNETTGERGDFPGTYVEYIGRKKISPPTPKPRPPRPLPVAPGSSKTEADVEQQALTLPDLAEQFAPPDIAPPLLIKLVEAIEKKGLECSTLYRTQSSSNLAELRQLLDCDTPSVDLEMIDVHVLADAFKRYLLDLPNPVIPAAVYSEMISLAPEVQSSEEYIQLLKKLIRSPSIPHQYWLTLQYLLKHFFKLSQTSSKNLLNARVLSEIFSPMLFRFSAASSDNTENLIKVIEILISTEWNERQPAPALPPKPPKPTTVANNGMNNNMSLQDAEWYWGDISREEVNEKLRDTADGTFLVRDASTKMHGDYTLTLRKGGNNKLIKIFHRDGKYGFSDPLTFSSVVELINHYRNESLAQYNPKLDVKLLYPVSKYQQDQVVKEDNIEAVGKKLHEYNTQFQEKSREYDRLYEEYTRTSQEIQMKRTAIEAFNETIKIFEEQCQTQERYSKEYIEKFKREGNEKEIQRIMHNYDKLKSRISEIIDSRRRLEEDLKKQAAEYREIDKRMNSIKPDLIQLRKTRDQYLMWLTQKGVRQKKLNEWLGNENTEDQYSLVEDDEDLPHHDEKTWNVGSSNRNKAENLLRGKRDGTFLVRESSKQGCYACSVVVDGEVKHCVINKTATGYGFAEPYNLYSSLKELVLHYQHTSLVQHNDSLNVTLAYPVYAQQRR

This test addresses PI3Kα (Homo sapiens, UniProt P42336, H1047R). As to the kind of experiment: ADP-Glo IC50 assay. The class given is biochemical. As to conditions: class symbols; key not given. In general terms: ADP-Glo first removes unused ATP, then detects ADP through luciferase.
As usually defined, the IC50 is the concentration at which inhibition is half-maximal. As to `Cc1cc([C@@H](C)Nc2ccccc2C(=O)O)c2oc(N3CCN(C(=O)CCCCCNc4cccc5c4C(=O)N(C4CCC(=O)NC4=O)C5=O)CC3)cc(=O)c2c1` (some centres unmarked) [Example I-142], the half-maximal inhibitory concentration (IC50) was in the range of 500 to 1000 nM.
Regarding `Cc1ccccc1Nc1ncc(C(=O)NCCOCCOCCC(=O)NCc2ccc3c(c2)CN(C2CCC(=O)NC2=O)C3=O)cc1NC(=O)c1csc2ccccc12` (centres unmarked) [Example I-30], the half-inhibitory concentration (IC50) fell in the range of 1000 to 10000 nM.
With `O=C(CCCCCCCNC(=O)c1cc(NC(=O)c2cc(F)cc(C(F)(F)F)c2)c2c(c1)C(=O)N[C@H]2c1cc(F)ccc1Cl)NCc1ccc2c(c1)CN(C1CCC(=O)NC1=O)C2=O` (some centres unmarked) [Example I-93] the figure was under 100 nM; with `COC(=O)CCCCCCCCCNC(=O)c1cnc(Nc2ccccc2C)c(NC(=O)c2csc3ccccc23)c1` [Example I-27], 500 to 1000 nM; with `O=C1CCC(N2Cc3cc(C#CCNC(=O)c4cc(NC(=O)c5cc(F)cc(C(F)(F)F)c5)c5c(c4)C(=O)N[C@H]5c4cc(F)ccc4Cl)ccc3C2=O)C(=O)N1` (some centres unmarked) [Example I-110], under 100 nM.
For `Cc1ccccc1Nc1ncc(C(=O)NCCOCCOCCOCCOCCOCCOCCC(=O)N[C@H](C(=O)N2C[C@H](O)C[C@H]2C(=O)N[C@@H](C)c2ccc(-c3scnc3C)cc2)C(C)(C)C)cc1NC(=O)c1csc2ccccc12` [Example I-33] the value was 1000 to 10000 nM.
In turn, `Cc1ccccc1Nc1ncc(C(=O)NCCOCCOCCOCCC(=O)NCc2ccc3c(c2)CN(C2CCC(=O)NC2=O)C3=O)cc1NC(=O)c1csc2ccccc12` (centres unmarked) [Example I-26] yielded a 50% inhibitory concentration (IC50) of 1000 to 10000 nM.
For `O=C1CCC(N2C(=O)c3ccc(NCCCNC(=O)c4cc(NC(=O)c5cc(F)cc(C(F)(F)F)c5)c5c(c4)C(=O)N[C@@H]5c4cc(F)ccc4Cl)cc3C2=O)C(=O)N1` (some centres unmarked) [Example I-96] the value was 100 to 500 nM; for `Cc1cc([C@@H](C)Nc2ccccc2C(=O)O)c2oc(N3CCN(C(=O)CCCCCCCNc4cccc5c4C(=O)N(C4CCC(=O)NC4=O)C5=O)CC3)cc(=O)c2c1` (some centres unmarked) [Example I-143], 1000 to 10000 nM.
With `Cc1ncsc1-c1ccc([C@H](C)NC(=O)[C@@H]2C[C@@H](O)CN2C(=O)[C@@H](NC(=O)CCCCCCCCCNC(=O)c2cc(NC(=O)c3nsc4ccccc34)c3n2CC(=O)N[C@H]3c2cc(F)ccc2Cl)C(C)(C)C)cc1` [Example I-113] the figure was 100 to 500 nM; with `O=C1CCC(N2C(=O)c3ccc(NCCCCCCCNC(=O)c4cnc(Nc5cc(F)ccc5Cl)c(NC(=O)c5csc6ccccc56)c4)cc3C2=O)C(=O)N1` (centres unmarked) [Example I-69], 100 to 500 nM; with `O=C1CCC(N2C(=O)c3ccc(NCCOCCOCCOCCOCCOCCOCCOCCOCCOCCOCCOCCOCCNC(=O)c4cc(NC(=O)c5cc(F)cc(C(F)(F)F)c5)c5c(c4)C(=O)N[C@@H]5c4cc(F)ccc4Cl)cc3C2=O)C(=O)N1` (some centres unmarked) [Example I-151], 1000 to 10000 nM.
For `O=C1CCC(N2Cc3cc(C(=O)NCCCCCCCCCNC(=O)c4cc(NC(=O)c5cccc(F)c5)c5c(c4)C(=O)N[C@H]5c4cc(F)ccc4Cl)ccc3C2=O)C(=O)N1` (some centres unmarked) [Example I-160] the value was 100 to 500 nM; for `Cc1cc([C@H](C)Nc2ccccc2C(=O)O)c2oc(N3CCN(C(=O)CCNc4cccc5c4C(=O)N(C4CCC(=O)NC4=O)C5=O)CC3)cc(=O)c2c1` (some centres unmarked) [Example I-134], 1000 to 10000 nM; for `Cc1ncsc1-c1ccc(CNC(=O)[C@@H]2C[C@@H](O)CN2C(=O)[C@@H](NC(=O)CCCCCCCCCNC(=O)c2cc(NC(=O)c3nsc4ccccc34)c3n2CC(=O)N[C@H]3c2cc(F)ccc2Cl)C(C)(C)C)cc1` [Example I-105], 500 to 1000 nM.
Turning to `O=C1CCC(N2Cc3cc(C(=O)NCCCCCCCCCNC(=O)c4cc(NC(=O)c5nsc6ccccc56)c5n4CC(=O)N[C@@H]5c4cc(F)ccc4Cl)ccc3C2=O)C(=O)N1` (some centres unmarked) [Example I-106], the IC50 is under 100 nM.
With `Cc1cc(Br)c2oc(N3CCN(C(=O)CCOCCOCCNC(=O)c4cnc(Nc5ccccc5C)c(NC(=O)c5csc6ccccc56)c4)CC3)cc(=O)c2c1` [Example I-91] the figure was 1000 to 10000 nM.
